The target in data set [1] is T1, Rev-Erb alpha (Homo sapiens, UniProt P20393).
T1 sequence (P20393 284-614 limits assumed): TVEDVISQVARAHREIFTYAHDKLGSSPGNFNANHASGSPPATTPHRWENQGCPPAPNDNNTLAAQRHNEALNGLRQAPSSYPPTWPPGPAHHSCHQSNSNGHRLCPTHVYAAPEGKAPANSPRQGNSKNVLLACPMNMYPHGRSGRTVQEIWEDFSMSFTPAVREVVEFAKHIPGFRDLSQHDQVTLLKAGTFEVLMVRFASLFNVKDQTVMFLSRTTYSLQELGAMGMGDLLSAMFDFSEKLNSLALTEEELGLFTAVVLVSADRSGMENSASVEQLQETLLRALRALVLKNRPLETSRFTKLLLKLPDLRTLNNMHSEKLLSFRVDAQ
Description: TR-FRET (HTRF) assay of Rev-Erb alpha LBD with NCoR peptide ID1. The format is biochemical. To be noted: cell-free, Rev-Erb alpha LBD His 20 nM, NCoR ID1 30 nM. How it is done: Recombinant histidine-tagged Rev-Erb alpha ligand binding domain (LBD; SEQ ID NO: 1) and NCoR peptide ID1 (SEQ ID NO: 2) were tagged with fluorophores. Histidine-tagged Rev-Erb alpha LBD protein was set up in a one to one ratio of 20 nM of His D2 (Cis Bio International 61HSDLB). The NCoR peptide (ID1) was prepared in-house. We used a concentration of 30 nM NCoR and 10 nM Terbium-labeled streptavidin (Cis Bio International 610SATLB).
The buffer for this assay comprised PBS pH 7.2, NaH2P04 at 4 g/L, Na2HP04 at 27 g/L and NaCl at 9 g/l in deionized water. Before using the buffer in the assay, a mixture comprising 1 mM of DTT, 2 mM of CHAPS, 1 mM of EDTA and 0.1% BSA fatty acid free was added to the appropriate amount of buffer. The protein mixture comprising recombinant Rev-Erb alpha LBD His (20 nM), the NCoR ID1 (30 nM) and their respective fluorophores were added to each well of a 384-well plate in a volume 18 μl. The compounds to analyze were diluted in PBS 10% DMSO and was added in a volume of 2 μL in a well. The final mixture volume was 20 μL and the mixture was allowed equilibrate for 2 hours at room temperature. Fluorescence intensity was then counted on the TECAN Genios Pro as a ratio of the fluorescence measured at 665 nm and that measured at 620 nm obtained in the absence of the compound (buffer only) or with the compound. Four experiments were carried out for each compound.
Each compound has been tested at 6 different concentrations to depict a dose-effect enabling the measure of biochemical parameters such as EC50 and TOP activation (%).
The Homogenous Time Resolved Fluorescence (HTRF) assay allows studying the ability of compounds according to the invention to activate Rev-Erb alpha and thus modulate the interaction with its corepressor. The molecular interactions between these bio-molecules are assessed in a cell-free assay by coupling each partner with a fluorescent label and detecting the level of energy transfer. This energy transfer occurs when the distance between the donor (SA Terbium complex) and the acceptor (D2) is small enough.
The ability of compounds according to the invention of activating Rev-Erb alpha was assessed in the described acellular assay. EC50 and TOP activation were measured.
In general terms: In TR-FRET formats the signal depends on donor and acceptor labels being close together.

Data set [2] concerns the target T1, Rev-Erb alpha. Description: M2H (mammalian two-hybrid) cellular activation assay of Rev-Erb alpha. The format is cell-based. To be noted: M2H assay, HEK293 cells, Gal4-Rev-Erb alpha / VP16-NCoR, luciferase reporter. Summed up:
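Six-point dose-response, 18 h, 37 °C, serum-free, in HEK293 cells carrying a Gal4-RE luciferase reporter with Gal4-Rev-Erb alpha or beta plus VP16-NCoR (corepressor interaction readout). EC50 and TOP activation (%) derived from luminescence across four experiments.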
In general terms: Reporter assays use an easily measured gene product as a stand-in for the process of interest.

As a reminder, the EC50 is the concentration at which the effect is half-maximal. The low end stands for greater potency, the high end for weaker potency. A word on the melting point: it is the temperature, or range, at which the solid turns liquid.

In turn, `FC(F)(F)c1nnc2ccc(Oc3ccccc3Cc3ccccc3)nn12` [Cpd.4-5, 6-(2-benzylphenoxy)-3-(trifluoromethyl)-[1,2,4]triazolo[4,3-b]pyridazine] displayed a melting point of 128.8 °C. In data set [1], this compound returned an EC50 of 100 to 1000 nM. For the same compound, the EC50 in data set [2] lay in the range of 1000 to 6000 nM.

The compound `FC(F)(F)c1nnc2ccc(Oc3cccc(-c4ccccc4)c3)nn12` [Cpd.3-3, 6-(biphenyl-3-yloxy)-3-(trifluoromethyl)-[1,2,4]triazolo[4,3-b]pyridazine] displayed a melting point of 140.2 °C. In addition, the EC50 in data set [1] was 1100 to 6000 nM. The EC50 in data set [2] fell in the range of 100 to 1000 nM.

`O=C(c1ccccc1)c1ccccc1Oc1ccc2nnc(C(F)(F)F)n2n1` [Cpd.4-8, (2-(3-(trifluoromethyl)-[1,2,4]triazolo[4,3-b]pyridazin-6-yloxy)phenyl)(phenyl)methanone] came in with a melting point of 112.1 °C. Moreover, the EC50 in data set [1] fell in the range of 100 to 1000 nM. This compound came in with an EC50 in data set [2] of 1000 to 6000 nM.

`Fc1ccc(-c2ccccc2Oc2ccc3nnc(Cl)n3n2)cc1` [Cpd.4-10, 6-(4′-fluoro-biphenyl-2-yloxy)-3-chloro-[1,2,4]triazolo[4,3-b]pyridazine] had a melting point of 144.4 °C. The compound also registered an EC50 in data set [1] of under 100 nM. Besides, the EC50 in data set [2] was in the range of 100 to 1000 nM.

On to `COc1ccc(-c2ccccc2)c(Oc2ccc3nnc(Cl)n3n2)c1` [Cpd.4-6, 6-(4-methoxy-biphenyl-2-yloxy)-3-chloro-[1,2,4]triazolo[4,3-b]pyridazine], for which the melting point worked out at 128.1 °C. Moreover, the EC50 in data set [1] was under 100 nM. Further, in data set [2], the EC50 lay within 100 to 1000 nM.

The record behind these values is patent US9586963B2 (GENFIT, priority 2011, dated 2017).
